Results taken from article PMC3674150 (Cancer research, 2013).
Read-outs that look alike come from different tables or passages of the source. Values belong to the compound of their own block, whether it stands above or below them.

What was measured:
K562 cells [1] = experiment: Detection of inhibitors by LC/MS/MS in cellular and media fractions
K562 cells [2] = experiment: Apoptosis assay; assay type: cell-based, human
[3] = system: BCR-ABL signaling (pCrkL) in K562 cells
[4] = system: BCR-ABL signaling (pSTAT5) in primary CML cells; experiment: Phosflow FACS analysis of pSTAT5 in primary CML cells; assay type: cell-based, human; details: 100 nM for 4 h
primary CML cells = experiment: Apoptosis assay in primary CML mononuclear cells after washout; details: primary CML cells (12/209), 4 h at 100 nM
K562 cells [5] = system: K562 cells
[6] = system: BCR-ABL signaling (pCrkL, pSTAT5) in K562 cells; details: 500 and 5000 nM for 2 h, FACS
[7] = clinical, cited from earlier work
[8] = 100 nM for 2 h, after standard washout
[9] = 2 h exposure at 10 nM, annexin V at 72 h
[10] = 2 h exposure at 10 nM, standard washout, annexin V at 72 h
[11] = 2 h exposure at 100 nM, annexin V at 72 h
[12] = 2 h exposure at 100 nM, standard washout, annexin V at 72 h

Structure (SMILES): Cc1ccc(C(=O)Nc2ccc(CN3CCN(C)CC3)c(C(F)(F)F)c2)cc1C#Cc1cnc2cccnn12 [ponatinib]
intracellular inhibitor level (K562 cells [1]; 10 nM for 2 h, after expanded washout): 0.14 ng/10^6 cells
intracellular inhibitor level (K562 cells [1]; 10 nM for 2 h, after standard washout): 0.24 ng/10^6 cells
intracellular inhibitor level (K562 cells [1]; 100 nM for 2 h, after expanded washout): 0.87 ng/10^6 cells
intracellular inhibitor level (K562 cells [1]; [8]): 2.11 ng/10^6 cells
media level of TKI (K562 cells [1]; [8]): 6.68 nM
apoptosis after expanded washout (K562 cells [2]; [9]): reduced to background levels
apoptosis after standard washout compared to continuous exposure (K562 cells [2]; [10]): minimal
apoptosis after expanded washout (K562 cells [2]; [11]): unaffected
apoptosis after standard washout compared to continuous exposure (K562 cells [2]; [12]): no reduction in apoptosis
pCrkL level after treatment compared to untreated/pretreatment ([3]; 2 h treatment at 10 nM, immunoblot): 25-50%
pCrkL level after treatment ([3]; 2 h treatment at 100 nM, immunoblot): essentially undetectable levels
pSTAT5 at 24 h post expanded washout [4]: approaching but not quite reaching those of untreated cells
pSTAT5 at 24 h post standard washout [4]: remained inhibited
apoptosis after expanded washout (primary CML cells): not completely back to baseline

media level of TKI (K562 cells [5]; human, 2 h, 5000 nM): 25.5 nM
Structure (SMILES): Cc1cn(-c2cc(NC(=O)c3ccc(C)c(Nc4nccc(-c5cccnc5)n4)c3)cc(C(F)(F)F)c2)cn1 [nilotinib]
apoptosis after expanded washout (K562 cells [2]; 2 h exposure at 5000 nM, annexin V at 72 h): reduced to background levels
apoptosis after standard washout (K562 cells [2]; 2 h exposure at 5000 nM, standard washout, annexin V at 72 h): substantial apoptosis
pCrkL signal inhibition at end of exposure ([3]; 2 h exposure at 500 nM): near complete pCrkL signal blockade
pCrkL signal inhibition at end of exposure ([3]; 2 h exposure at 5000 nM): complete interruption
pCrkL after expanded washout [6]: pCrkL levels approximating pretreatment levels

Structure (SMILES): CNC(=O)c1cc(Oc2ccc(NC(=O)Nc3cc(C(C)(C)C)nn3-c3ccc4ncccc4c3)c(F)c2)ccn1 [DCC-2036, rebastinib]
concentration inducing substantial apoptosis over untreated (K562 cells [2]; continuous exposure for 72 h): 25 to 50 nM
TKI in the media fraction (K562 cells [5]): either not detected or below the lower limit of quantitation

Structure (SMILES): Cc1nc(Nc2ncc(C(=O)Nc3c(C)cccc3Cl)s2)cc(N2CCN(CCO)CC2)n1 [dasatinib]
apoptosis after expanded washout (K562 cells [2]; [9]): background levels of apoptosis
apoptosis after standard washout compared to continuous exposure (K562 cells [2]; [10]): abolished onset of apoptosis
apoptosis after expanded washout (K562 cells [2]; [11]): moderate reduction in the extent of apoptosis
apoptosis after standard washout compared to continuous exposure (K562 cells [2]; [12]): only slightly diminished the extent of apoptosis
apoptosis (annexin V-positive cells) (K562 cells [2]; continuous exposure at 10 nM or 100 nM): substantial onset of apoptosis
TKI in the media fraction (K562 cells [5]): either not detected or below the lower limit of quantitation
plasma half-life ([7]; ref 9, 21): 3 to 5 h
plasma half-life ([7]; ref 10, 11): 3 to 5 h
serum half-life ([7]; ref 13): 3 to 5 h
